{"source": "patent US4487924A", "about": "“2'-N-β-Lysyl) aminoglycosides” (Kowa Company, Ltd., priority 1982, dated 1984)", "test_in_all_cases": "Antibiotic activity (MIC), Table 1", "type_in_all_cases": "cell-based", "key": {"S. aureus 209P JC-1": {"tested_on": "S. aureus 209P JC-1", "settings": "Staphylococcus aureus, 209P, read-out: MIC"}, "S. faecalis Imanari": {"tested_on": "S. faecalis Imanari", "settings": "Enterococcus faecalis, read-out: MIC"}, "B. subtilis ATCC 6633": {"tested_on": "B. subtilis ATCC 6633", "settings": "Bacillus subtilis, ATCC6633, B. subtilis ATCC 6633; read-out: MIC"}, "E. coli NIHJ JC-2": {"tested_on": "E. coli NIHJ JC-2", "settings": "Escherichia coli, NIHJJC2, E. coli NIHJ JC-2; read-out: MIC"}, "K. pneumoniae PCI 602": {"tested_on": "K. pneumoniae PCI 602", "settings": "Klebsiella pneumoniae, PCI602, K. pneumoniae PCI 602; read-out: MIC"}, "E. cloacae IID 977": {"tested_on": "E. cloacae IID 977", "settings": "Enterobacter cloacae, IID977, E. cloacae IID 977; read-out: MIC"}, "S. marcescens NHL": {"tested_on": "S. marcescens NHL", "settings": "Serratia marcescens, read-out: MIC"}, "P. inconstans 93": {"tested_on": "P. inconstans 93", "settings": "Providencia alcalifaciens, 93, P. inconstans 93; read-out: MIC"}, "P. vulgaris IID 874": {"tested_on": "P. vulgaris IID 874", "settings": "Proteus vulgaris, IID874, P. vulgaris IID 874; read-out: MIC"}, "P. aeruginosa NCTC 10490": {"tested_on": "P. aeruginosa NCTC 10490", "settings": "Pseudomonas aeruginosa, NCTC10490, P. aeruginosa NCTC 10490; read-out: MIC"}, "P. cepacia 11D 1340": {"tested_on": "P. cepacia 11D 1340", "settings": "Burkholderia cepacia, 11D1340, read-out: MIC"}, "P. maltophilia IID 1275": {"tested_on": "P. maltophilia IID 1275", "settings": "Stenotrophomonas maltophilia, IID1275, P. maltophilia IID 1275; read-out: MIC"}, "P. putida IID 5121": {"tested_on": "P. putida IID 5121", "settings": "Pseudomonas putida, IID5121, P. putida IID 5121; read-out: MIC"}, "E. coli ML 1410": {"tested_on": "E. coli ML 1410", "settings": "Escherichia coli, ML1410, E. coli ML 1410; read-out: MIC"}, "[1]": {"tested_on": "E. coli ML 1410 R81 (APH(3')-I)", "settings": "Escherichia coli"}, "[2]": {"tested_on": "P. aeruginosa TI 13 (APH(3')-I)", "settings": "Pseudomonas aeruginosa"}, "[3]": {"tested_on": "E. coli ML 1410 R83 (APH(3')-II)", "settings": "Escherichia coli"}, "[4]": {"tested_on": "P. aerugionosa TK-157 (APH(3')-II)", "settings": "read-out: MIC"}, "[5]": {"tested_on": "E. coli ML 1410 R102 (AAD(2\"))", "settings": "Escherichia coli"}, "[6]": {"tested_on": "K. pneumoniae 4687 (AAD(2\"))", "settings": "Klebsiella pneumoniae, read-out: MIC"}, "[7]": {"tested_on": "E. coli ML 1410 R82 (AAD(3\"))", "settings": "Escherichia coli"}, "[8]": {"tested_on": "P. aeruginosa GN315 (AAC(6')-IV)", "settings": "Pseudomonas aeruginosa, GN315, P. aeruginosa GN315 (AAC(6')-IV); read-out: MIC"}, "E. coli JR 88 (AAC(3)-I)": {"tested_on": "E. coli JR 88 (AAC(3)-I)", "settings": "Escherichia coli, read-out: MIC"}, "[9]": {"tested_on": "P. aeruginosa 99 (AAC(3)-I)", "settings": "Pseudomonas aeruginosa, read-out: MIC"}, "E. coli R176 (AAC(3)-II)": {"tested_on": "E. coli R176 (AAC(3)-II)", "settings": "Escherichia coli, read-out: MIC"}, "[10]": {"tested_on": "P. aeruginosa RST-1 (AAC(3)-III)", "settings": "Pseudomonas aeruginosa, read-out: MIC"}, "[11]": {"tested_on": "P. inconstans GN1554 (AAC(2'))", "settings": "Providencia alcalifaciens, GN1554, P. inconstans GN1554 (AAC(2')); read-out: MIC"}}}
{"smiles": "CNCC1CCC(N)C(OC2C(N)CC(OC)C(NC)C2O)O1", "note": "(stereo not drawn) [KA-7038VI, reference compound]", "values": [{"measurement": "MIC", "setting": "S. aureus 209P JC-1", "result": 25, "unit": "µg/mL"}, {"measurement": "MIC", "setting": "S. faecalis Imanari", "result": 100, "unit": "µg/mL"}, {"measurement": "MIC", "setting": "B. subtilis ATCC 6633", "result": 6.25, "unit": "µg/mL"}, {"measurement": "MIC", "setting": "E. coli NIHJ JC-2", "result": 50, "unit": "µg/mL"}, {"measurement": "MIC", "setting": "K. pneumoniae PCI 602", "result": 100, "unit": "µg/mL"}, {"measurement": "MIC", "setting": "E. cloacae IID 977", "result": "> 100", "unit": "µg/mL"}, {"measurement": "MIC", "setting": "S. marcescens NHL", "result": "> 100", "unit": "µg/mL"}, {"measurement": "MIC", "setting": "P. inconstans 93", "result": "> 100", "unit": "µg/mL"}, {"measurement": "MIC", "setting": "P. vulgaris IID 874", "result": 50, "unit": "µg/mL"}, {"measurement": "MIC", "setting": "P. aeruginosa NCTC 10490", "result": "> 100", "unit": "µg/mL"}, {"measurement": "MIC", "setting": "P. cepacia 11D 1340", "result": "> 100", "unit": "µg/mL"}, {"measurement": "MIC", "setting": "P. maltophilia IID 1275", "result": "> 100", "unit": "µg/mL"}, {"measurement": "MIC", "setting": "P. putida IID 5121", "result": "> 100", "unit": "µg/mL"}, {"measurement": "MIC", "setting": "E. coli ML 1410", "result": "> 100", "unit": "µg/mL"}, {"measurement": "MIC", "setting": "[1]", "result": "> 100", "unit": "µg/mL"}, {"measurement": "MIC", "setting": "[2]", "result": 100, "unit": "µg/mL"}, {"measurement": "MIC", "setting": "[3]", "result": "> 100", "unit": "µg/mL"}, {"measurement": "MIC", "setting": "[4]", "result": "> 100", "unit": "µg/mL"}, {"measurement": "MIC", "setting": "[5]", "result": 100, "unit": "µg/mL"}, {"measurement": "MIC", "setting": "[6]", "result": "> 100", "unit": "µg/mL"}, {"measurement": "MIC", "setting": "[7]", "result": "> 100", "unit": "µg/mL"}, {"measurement": "MIC", "setting": "[8]", "result": "> 100", "unit": "µg/mL"}, {"measurement": "MIC", "setting": "E. coli JR 88 (AAC(3)-I)", "result": "> 100", "unit": "µg/mL"}, {"measurement": "MIC", "setting": "[9]", "result": "> 100", "unit": "µg/mL"}, {"measurement": "MIC", "setting": "E. coli R176 (AAC(3)-II)", "result": "> 100", "unit": "µg/mL"}, {"measurement": "MIC", "setting": "[10]", "result": "> 100", "unit": "µg/mL"}, {"measurement": "MIC", "setting": "[11]", "result": "> 100", "unit": "µg/mL"}]}
